The compounds below were run against T1, HIV-1 integrase (Human immunodeficiency virus type 1 group M subtype B, UniProt P04585) (assay: HIV-1 integrase inhibition assay (procedure of Burke et al.; radiolabeled duplex substrate, U5 end of HIV LTR)). Settings: Table 1; 3,4-dihydroxy derivative of the root amino acid, formula Ic; read-out: Anti-integrase activity (IC50) 3,4-dihydroxy derivative.
Assay type: biochemical
Protocol: For the purposes of Table 1 (and Table 2) the HIV-1 integrase inhibition assay was carried out following a known procedure (Burke, Jr. T. R. et al., J. Med. Chem. 38, 4171-4178 (1995)). A suitable radiolabeled duplex substrate corresponding to the U5 end of the HIV LTR was used.

Point of comparison: `O=C(CC[C@H](NC(=O)c1ccc(O)c(O)c1)C(=O)OCc1ccccc1)NCCc1ccc(O)c(O)c1` [Example 49, N-(3,4-dihydroxybenzoyl)-δ-N′-(3′,4′-dihydroxyphenethyl)-L-glutamine α-benzyl ester], IC50 2.2 µM. Against it:
- C[C@H](NC(=O)c1ccc(O)c(O)c1)C(=O)NCCc1ccc(O)c(O)c1 [Example 20, N-[N′-(3′, 4′-dihydroxybenzoyl)-L-alanyl]-dopamine] — 32-fold higher, 71 µM
- CC(C)C[C@H](NC(=O)c1ccc(O)c(O)c1)C(=O)NCCc1ccc(O)c(O)c1 [Example 26, N-[N′-(3′,4′-dihydroxybenzoyl)-L-leucyl]-dopamine] — 20-fold higher, 45 µM
- O=C(N[C@@H](Cc1ccc(O)cc1)C(=O)NCCc1ccc(O)c(O)c1)c1ccc(O)c(O)c1 [Example 12, N-[N′-(3′,4′-dihydroxybenzoyl)-L-tyrosyl]-dopamine] — 3.6-fold higher, 8 µM
- O=C(CC[C@H](NC(=O)c1ccc(O)c(O)c1)C(=O)NCCc1ccc(O)c(O)c1)NCCc1ccc(O)c(O)c1 [Example 22, N-[′-(3′,4′-dihydroxybenzoyl)-δ-(3-hydroxytyramine)-L-glutamyl]-dopamine] — 5-fold higher, 11 µM
- O=C(N[C@@H](Cc1ccccc1)C(=O)NCCc1ccc(O)c(O)c1)c1ccc(O)c(O)c1 [Example 14, N-[N′-(3′,4′-dihydroxybenzoyl)-L-phenylalanyl]-dopamine] — 20-fold higher, 45 µM
- O=C(CC[C@H](NC(=O)c1ccc(O)c(O)c1)C(=O)NCCc1ccc(O)c(O)c1)OCc1ccccc1 [Example 23, N-[′-(3′,4′-dihydroxybenzoyl)-δ-benzyloxy-L-glutamyl]-dopamine] — 12-fold higher, 26 µM
- O=C(NCCc1ccc(O)c(O)c1)[C@@H]1CCCN1C(=O)c1ccc(O)c(O)c1 [Example 28, N-[N′-(3′,4′-dihydroxybenzoyl)-L-prolyl]-dopamine] — 36-fold higher, 80 µM
- O=C(N[C@@H](Cc1c[nH]c2ccccc12)C(=O)NCCc1ccc(O)c(O)c1)c1ccc(O)c(O)c1 [Example 30, N-[N′-(3′,4′-dihydroxybenzoyl)-L-tryptophyl]-dopamine] — 7.7-fold higher, 17 µM
- O=C(N[C@@H](Cc1ccc(O)c(O)c1)C(=O)NCCc1ccc(O)c(O)c1)c1ccc(O)c(O)c1 [Example 16, N-[N′-(3′,4′-dihydroxybenzoyl)-L-3,4-dihydroxy-phenylalanyl]-dopamine] — 3.6-fold higher, 8 µM
- O=C(N[C@H](Cc1ccc(O)cc1)C(=O)NCCc1ccc(O)c(O)c1)c1ccc(O)c(O)c1 [Example 10, N-[N′-(3′,4′-dihydroxybenzoyl)-D-tyrosyl]-dopamine] — 30-fold higher, 67 µM
- O=C(NC(Cc1ccc(O)c(F)c1)C(=O)NCCc1ccc(O)c(O)c1)c1ccc(O)c(O)c1 (racemic) [Example 48, N-[N′-(3′,4′-dihydroxybenzoyl)-DL-3-fluorotyrosinyl]-dopamine] — 1.6-fold lower, 1.4 µM
- O=C(N[C@@H](Cc1c[nH]cn1)C(=O)NCCc1ccc(O)c(O)c1)c1ccc(O)c(O)c1 [Example 33] — 22-fold lower, 0.1 µM
- O=C(NC(Cc1cccc(O)c1)C(=O)NCCc1ccc(O)c(O)c1)c1ccc(O)c(O)c1 (racemic) [Example 50, N-[N′-(3′,4′-dihydroxybenzoyl)-DL-m-tyrosyl]-dopamine] — 1.7-fold lower, 1.3 µM

Same assay, conditions: Table 1; 4-hydroxy derivative of the root amino acid, formula Ic; read-out: Anti-integrase activity (IC50) 4-hydroxy derivative

Point of comparison: “N-[N′-(p-hydroxybenzoyl)-L-tryptophanyl]-dopamine [Example 29]”, IC50 245 µM. Against it:
- CC(C)C[C@H](NC(=O)c1ccc(O)cc1)C(=O)NCCc1ccc(O)c(O)c1 [Example 25, N-[N′-(p-hydroxybenzoyl)-L-leucyl]-dopamine] — not separable, > 200 µM
- O=C(NCCc1ccc(O)c(O)c1)[C@@H]1CCCN1C(=O)c1ccc(O)cc1 [Example 27, N-[N′-(p-hydroxybenzoyl)-L-prolyl]-dopamine] — not separable, > 200 µM
- O=C(CC[C@H](NC(=O)c1ccc(O)cc1)C(=O)NCCc1ccc(O)c(O)c1)NCCc1ccc(O)c(O)c1 [Example 21, N-[′-(p-hydroxybenzoyl)-6-(3-hydroxytyramine)-L-glutamyl]-dopamine] — 3.8-fold lower, 64 µM
- O=C(N[C@@H](Cc1ccccc1)C(=O)NCCc1ccc(O)c(O)c1)c1ccc(O)cc1 [Example 13, N-[N′-(p-hydroxybenzoyl)-L-phenylalanyl]-dopamine] — not separable, > 200 µM
- O=C(N[C@@H](Cc1ccc(O)cc1)C(=O)NCCc1ccc(O)c(O)c1)c1ccc(O)cc1 [Example 11, N-[N′-(p-hydroxybenzoyl)-L-tyrosyl]-dopamine] — 2.8-fold lower, 88 µM
- C[C@H](NC(=O)c1ccc(O)cc1)C(=O)NCCc1ccc(O)c(O)c1 [Example 19, N-[N′-(p-hydroxybenzoyl)-L-alanyl]-dopamine] — 1.5-fold lower, 160 µM

Same assay, conditions: Table 2; dipeptide derivatives of I; read-out: Anti-integrase activity (IC50)

Point of comparison: `O=C(N[C@@H](Cc1ccc(O)cc1)C(=O)N[C@@H](Cc1ccc(O)cc1)C(=O)O)c1ccc(O)c(O)c1` [Example 36, N-[N′-(3′,4′-dihydroxybenzoyl)-L-tyrosyl]-L-tyrosine], IC50 177 µM. Against it:
- O=C(C[C@H](NC(=O)[C@H](Cc1ccc(O)cc1)NC(=O)c1ccc(O)c(O)c1)C(=O)NCCc1ccc(O)c(O)c1)OCc1ccccc1 [Example 41, N-[N′-[N″-(3″,4″-dihydroxybenzoyl)-L-tyrosyl]-L-γ-O-benzyl-aspartyl]-dopamine] — 8.8-fold lower, 20 µM
- O=C(N[C@@H](Cc1ccc(O)cc1)C(=O)N[C@@H](Cc1ccc(O)cc1)C(=O)NCCc1ccc(O)c(O)c1)c1ccc(O)c(O)c1 [Example 51] — 10-fold lower, 17 µM
- O=C(O)CNC(=O)[C@H](Cc1ccc(O)cc1)NC(=O)c1ccc(O)c(O)c1 [Example 37, N-[N′-(3′,4′-dihydroxybenzoyl)-L-tyrosyl]-glycine] — higher, > 200 µM
- O=C(CNC(=O)c1ccc(O)c(O)c1)N[C@@H](Cc1ccc(O)cc1)C(=O)O [Example 39, N-[N′-(3′,4′-dihydroxybenzoyl)-glycyl]-L-tyrosine] — higher, > 200 µM

These compounds were tested against T1, HIV-1 integrase (assay: HIV-1 integrase inhibition assay (based on procedure of Hazuda et al.)). Settings: Table 3; Nα-caffeoyl derivative of the root amino acid, general formula I; read-out: Anti-integrase activity (IC50) Nα-Caffeoyl derivative.
Assay type: biochemical
Description: For the purposes of Table 3 the HIV-1 integrase inhibition assay was based on a known procedure (Hazuda, D. J. et al., Nucleic Acids Res. 22, 1121-1122 (1994)).

Point of comparison: `O=C(/C=C/c1ccc(O)c(O)c1)N[C@@H](CO)C(=O)NCCc1ccc(O)c(O)c1` [Example 59, N-(N′-caffeoyl-L-seryl)dopamine], IC50 140 nM. Against it:
- N-(N′-caffeoyl-L-tryptophanyl)dopamine [Example 53] — 11-fold higher, 1500 nM
- O=C(/C=C/c1ccc(O)c(O)c1)N[C@@H](Cc1ccc(O)cc1)C(=O)NCc1ccc(O)c(O)c1 [Example 64, N-(N′-caffeoyl-L-tyrosyl)-3,4-dihydroxybenzylamine] — 21-fold higher, 3000 nM
- O=C(/C=C/c1ccc(O)c(O)c1)N[C@@H](Cc1ccc(O)c(O)c1)C(=O)NCc1ccc(O)c(O)c1 [Example 55, N-(N′-caffeoyl-L-3,4-dihydroxyphenylalanyl)-3,4-dihydroxybenzylamine] — 2.7-fold higher, 380 nM
- O=C(C=Cc1ccc(O)c(O)c1)NC(CCC(=O)NCCc1ccc(O)c(O)c1)C(=O)NCCc1ccc(O)c(O)c1 [Example 60, N-[N′-caffeoyl-Nα-(3-hydroxytyramine)-L-glutamyl]dopamine] — within 1.5-fold, 105 nM
- O=C(/C=C/c1ccc(O)c(O)c1)N[C@@H](CC(=O)OCc1ccccc1)C(=O)NCCc1ccc(O)c(O)c1 [Example 61, N-(N′-caffeoyl-Oγ-benzyl-L-aspartyl)dopamine] — 25-fold higher, 3500 nM
- O=C(/C=C/c1ccc(O)c(O)c1)N[C@@H](Cc1ccc(O)c(O)c1)C(=O)NCCc1ccc(O)c(O)c1 [Example 54, N-(N′-caffeoyl-L-3,4-dihydroxyphenylalanyl)dopamine] — 4.4-fold higher, 620 nM
- O=C(O)C[C@H](NC(=O)/C=C/c1ccc(O)c(O)c1)C(=O)NCCc1ccc(O)c(O)c1 [Example 62, N-(N′-caffeoyl-L-aspartyl)dopamine] — 25-fold higher, 3500 nM
- O=C(C=Cc1ccc(O)c(O)c1)NC(CC(=O)NCCc1ccc(O)c(O)c1)C(=O)OCc1ccccc1 [Example 52, Nα-caffeoyl-Nγ-(3-hydroxytyramine)-L-aspartic acid benzyl ester] — 16-fold higher, 2200 nM

Same assay, conditions: Table 3; other Nα-3,4-dihydroxyphenyl derivative of the root amino acid, general formula I; read-out: Anti-integrase activity (IC50) Other Nα-3,4-dihydroxyphenyl derivative

Point of comparison: `O=C(N[C@@H](Cc1ccc(O)cc1)C(=O)NCc1ccc(O)c(O)c1)c1ccc(O)c(O)c1` [Example 56, N-[N′-(3′,4′-dihydroxybenzoyl)-L-tyrosyl]-3,4-dihydroxybenzylamine], IC50 780 nM. Against it:
- O=C(CC[C@H](NC(=O)c1ccc(O)c(O)c1)C(=O)O)NCCc1ccc(O)c(O)c1 [Example 63, Nα-(3,4-dihydroxybenzoyl)-Nδ-(3-hydroxytyramine) L-glutamic acid] — 3.6-fold higher, 2800 nM
- O=C(N[C@@H](CS)C(=O)NCCc1ccc(O)c(O)c1)c1ccc(O)c(O)c1 [Example 58, N-[N′-(3′,4′-dihydroxybenzoyl)-L-cysteinyl]dopamine] — 3.7-fold lower, 210 nM
- O=C(Cc1ccc(O)c(O)c1)N[C@@H](Cc1ccc(O)c(O)c1)C(=O)NCCc1ccc(O)c(O)c1 [Example 57, N-[N′-(3′,4′-dihydroxyphenylacetyl)-L-3,4-dihydroxyphenylalanyl]dopamine] — 7.4-fold lower, 106 nM
